Assay results: ChEMBL document CHEMBL1124460, “Synthesis and biological evaluation of [125I]- and [123I]-4-iododexetimide, a potent muscarinic cholinergic receptor antagonist” (J Med Chem, 1989)

Test system: not listed separately
Assay: Ability (10 ug/kg) to inhibit binding of [125I]iododexetimide to 5-hydroxytryptamine receptor in mice
Conditions: Mus musculus

Compound `O=C(c1ccc(F)cc1)C1CCN(CCn2c(=O)[nH]c3ccccc3c2=O)CC1` [KETANSERIN] has an IC50 of 130000 nM.

Test system: not listed separately
Assay: Ability (10 ug/kg) to inhibit binding of [125I]iododexetimide to adrenergic receptor in mice
Conditions: not given

`COc1cc2nc(N3CCN(C(=O)c4ccco4)CC3)nc(N)c2cc1OC` [PRAZOSIN] gave an IC50 of 13000 nM.

Biological target: Muscarinic acetylcholine receptor
Assay: Displacement of [3H]N-methylscopolamine from rat brain homogenate
Assay type: tissue-based
Conditions: not given

`O=C1CCC(c2ccccc2)(C2CCN(Cc3cccc(I)c3)CC2)C(=O)N1` (configuration not stated) and `O=C1CCC(c2ccccc2)(C2CCN(Cc3cccc(Br)c3)CC2)C(=O)N1` (configuration not stated) are within 1.5-fold of each other in IC50: 22 nM for the first, 24 nM for the second.

Going from `O=C1CCC(c2ccccc2)(C2CCN(Cc3ccccc3I)CC2)C(=O)N1` (configuration not stated) to `O=C1CCC(c2ccccc2)(C2CCN(Cc3ccccc3F)CC2)C(=O)N1` (configuration not stated), the IC50 falls from 500 nM to 32 nM (16-fold).

`O=C1CCC(c2ccccc2)(C2CCN(Cc3ccc(Br)cc3)CC2)C(=O)N1` (configuration not stated) and `O=C1CCC(c2ccccc2)(C2CCN(Cc3ccc(Cl)cc3)CC2)C(=O)N1` (configuration not stated) are within 1.5-fold of each other in IC50: 38 nM for the first, 27 nM for the second.

`O=C1CCC(c2ccccc2)(C2CCN(Cc3ccccc3Br)CC2)C(=O)N1` (configuration not stated) and `O=C1CCC(c2ccccc2)(C2CCN(Cc3ccccc3Cl)CC2)C(=O)N1` (configuration not stated) are within 1.5-fold of each other in IC50: 500 nM for the first, 460 nM for the second.

`O=C1CCC(c2ccccc2)(C2CCN(Cc3cccc(Cl)c3)CC2)C(=O)N1` (configuration not stated) and `O=C1CCC(c2ccccc2)(C2CCN(Cc3cccc(F)c3)CC2)C(=O)N1` (configuration not stated) are within 1.5-fold of each other in IC50: 26 nM for the first, 21 nM for the second.

First: O=C1CCC(c2ccccc2)(C2CCN(Cc3ccc(F)cc3)CC2)C(=O)N1 (configuration not stated)
Second: O=C1CCC(c2ccccc2)(C2CCN(Cc3ccc(I)cc3)CC2)C(=O)N1 (configuration not stated)
The IC50 of the first is 5.8-fold higher: 98 nM for the first, 17 nM for the second.

Compound `O=C1CCC(c2ccccc2)(C2CCN(Cc3ccccc3)CC2)C(=O)N1` (configuration not stated) [BENZETIMIDE] has an IC50 of 15 nM.

Biological target: Muscarinic acetylcholine receptor
Assay: Ability (10 ug/kg) to inhibit binding of [125I]iododexetimide to muscarinic receptor in mice
Conditions: not given

First: Cl.O=C1CCC(c2ccccc2)(C2CCN(Cc3ccccc3)CC2)C(=O)N1 (configuration not stated) [BENZETIMIDE HYDROCHLORIDE]
Second: O=C1CC[C@@](c2ccccc2)(C2CCN(Cc3ccccc3)CC2)C(=O)N1 [DEXETIMIDE]
The IC50 of the first is 2700-fold higher: 8900 nM for the first, 3.3 nM for the second.
